Assay results from publication PMC4700268 (Frontiers in Pharmacology, 2016).

Legend:
[1] = target: T1, hOCT2 (Homo sapiens, UniProt O15244); assay: Inhibition of [3H]MPP+ uptake in hOCT2 transfected MDCK II cells; format: in vitro ADME; settings: 1 μM [3H]MPP+, ETV 0–2000 μM, 2 min
T1 construct: host or cells: MDCK II cells, transient transfection
T1 sequence (O15244 1-555): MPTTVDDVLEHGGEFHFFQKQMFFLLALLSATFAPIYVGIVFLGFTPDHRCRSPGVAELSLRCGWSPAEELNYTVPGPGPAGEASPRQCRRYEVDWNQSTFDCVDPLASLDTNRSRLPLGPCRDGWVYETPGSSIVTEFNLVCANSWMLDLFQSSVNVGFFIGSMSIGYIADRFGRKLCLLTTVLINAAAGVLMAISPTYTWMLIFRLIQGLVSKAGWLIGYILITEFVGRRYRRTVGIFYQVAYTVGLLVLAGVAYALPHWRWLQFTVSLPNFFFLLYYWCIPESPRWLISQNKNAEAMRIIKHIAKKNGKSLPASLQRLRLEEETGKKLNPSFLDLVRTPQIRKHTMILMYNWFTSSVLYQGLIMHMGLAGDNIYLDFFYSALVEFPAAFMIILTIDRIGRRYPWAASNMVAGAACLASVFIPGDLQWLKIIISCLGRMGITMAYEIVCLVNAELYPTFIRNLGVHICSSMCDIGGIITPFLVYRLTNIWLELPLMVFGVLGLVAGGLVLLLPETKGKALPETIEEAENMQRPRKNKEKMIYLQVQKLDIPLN
Protocol: Inhibitory transport assays were carried out in 24-well plates as described previously ([Mandikova et al., 2013]). Transport assays in HeLa cells transiently transfected with the hOAT1 expression construct were performed 48 h after transfection. Transport assays in MDCK II cells transiently transfected with hOCT2, hCNT2 or hCNT3 were performed 24 h after transfection. The cultivation medium was removed and the cells were washed with transport solution and preincubated for 10 min at 37°C. The standard radiolabeled substrate or tested radioactive antiviral substance dissolved in transport solution was added to the cells and incubated for 2 min. […] After the designated time period, the incubation was stopped by washing the cells twice with ice-cold solution containing 137 mM NaCl and 10 mM HEPES, pH 7.4. The cells were disintegrated with 0.1 mL of Triton X 0.5% in 100 mM NaOH for 1 h. […] IC50 values were calculated using non-linear regression analysis using GraphPad Prism software (version 6).

[2] = system: MDCK II cells transiently transfected with hCNT3; assay: MTS cell viability assay in hCNT3 transfected MDCK II cells; format: cell-based, canine; settings: 24 h, 250–1000 μM, hCNT3 vs empty vector MDCK II cells
Protocol: The controls were prepared simultaneously.

Inhibitory interaction with hOCT2 [1]: No interaction
Structure (SMILES): C=C1[C@H](CO)[C@@H](O)C[C@@H]1n1cnc2c(=O)[nH]c(N)nc21 [ETV, Entecavir]
Effect of hCNT3 expression on cytotoxicity [2]: did not prove any significant increase in cytotoxicity
